Data reported in PubChem BioAssay AID1963863 (Molecular Pharmacology Branch, DTP, NCI, 2024).

Tested on: 931267-113-T-J1-PDC KRAS spheroid with HUVEC/MSC, viability
Assay: Anticancer human tumor 931267-113-T-J1-PDC patient-derived colon adenocarcinoma cell line growth inhibition [KRAS2]
Details: for IC50: curve of first compound; for viability, T/C: stronger effect = lower value
How it was run: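 Combination screen of spheroid viability in tumor-cell co-cultures with endothelial (HUVEC) and mesenchymal stem cell stroma. Each agent was tested in half-log dilutions, topping at clinical Cmax or at 10 microM without a known Cmax.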

[1] = second compound 0.1 µM, first compound 0.01 µM
[2] = second compound 0.1 µM, first compound 0.0316 µM
[3] = second compound 0.1 µM, first compound 0.1 µM
[4] = second compound 0.1 µM, first compound 0.316 µM
[5] = second compound 0.1 µM, first compound 1 µM
[6] = second compound 0.1 µM, first compound 3.16 µM
[7] = second compound 0.316 µM, first compound 0.01 µM
[8] = second compound 0.316 µM, first compound 0.0316 µM
[9] = second compound 0.316 µM, first compound 0.1 µM
[10] = second compound 0.316 µM, first compound 0.316 µM
[11] = second compound 0.316 µM, first compound 1 µM
[12] = second compound 0.316 µM, first compound 3.16 µM
[13] = second compound 1 µM, first compound 0.01 µM
[14] = second compound 1 µM, first compound 0.0316 µM
[15] = second compound 1 µM, first compound 0.1 µM
[16] = second compound 1 µM, first compound 0.316 µM
[17] = second compound 1 µM, first compound 1 µM
[18] = second compound 1 µM, first compound 3.16 µM
[19] = second compound 3.16 µM, first compound 0.01 µM
[20] = second compound 3.16 µM, first compound 0.0316 µM
[21] = second compound 3.16 µM, first compound 0.1 µM
[22] = second compound 3.16 µM, first compound 0.316 µM
[23] = second compound 3.16 µM, first compound 1 µM
[24] = second compound 3.16 µM, first compound 3.16 µM
[25] = second compound 10 µM, first compound 0.01 µM
[26] = second compound 10 µM, first compound 0.0316 µM
[27] = second compound 10 µM, first compound 0.1 µM
[28] = second compound 10 µM, first compound 0.316 µM
[29] = second compound 10 µM, first compound 1 µM
[30] = second compound 10 µM, first compound 3.16 µM
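Note: compound exposure lasted 7 days before the readout.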
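Throughout, for viability, T/C: 100% = DMSO vehicle control viability.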

SMILES: CC1COCCN1c1cc(-c2ccnn2C)c2ccnc(-c3ccn[nH]3)c2n1 (stereo not given) + CC1OCC2(CCN(c3cnc(Sc4ccnc(N)c4Cl)c(N)n3)CC2)C1N
- IC50 (second compound 0.1 µM): 42.4 nM
- IC50 (second compound 0.316 µM): 45.3 nM
- IC50 (second compound 1 µM): 44.3 nM
- IC50 (second compound 3.16 µM): 33.2 nM
- IC50 (second compound 10 µM): 59.9 nM
- viability, T/C [1]: 92.3%
- viability, T/C [2]: 57.3%
- viability, T/C [3]: 28.9%
- viability, T/C [4]: 16.6%
- viability, T/C [5]: 16.9%
- viability, T/C [6]: 19.5%
- viability, T/C [7]: 81.2%
- viability, T/C [8]: 63.4%
- viability, T/C [9]: 20.6%
- viability, T/C [10]: 15.6%
- viability, T/C [11]: 19%
- viability, T/C [12]: 18.6%
- viability, T/C [13]: 91.1%
- viability, T/C [14]: 58.5%
- viability, T/C [15]: 29.6%
- viability, T/C [16]: 18.1%
- viability, T/C [17]: 18.5%
- viability, T/C [18]: 13.6%
- viability, T/C [19]: 80.6%
- viability, T/C [20]: 50.4%
- viability, T/C [21]: 29.3%
- viability, T/C [22]: 16.1%
- viability, T/C [23]: 15.4%
- viability, T/C [24]: 18.4%
- viability, T/C [25]: 86.9%
- viability, T/C [26]: 80.5%
- viability, T/C [27]: 25.6%
- viability, T/C [28]: 14.4%
- viability, T/C [29]: 13.9%
- viability, T/C [30]: 15.6%

SMILES: Cn1nccc1Nc1nccc(-c2cc3c(s2)C(C)(C)N(CCN2CCOCC2)C3=O)n1 + CC1OCC2(CCN(c3cnc(Sc4ccnc(N)c4Cl)c(N)n3)CC2)C1N
- IC50 (second compound 0.1 µM): 362 nM
- IC50 (second compound 0.316 µM): 317 nM
- IC50 (second compound 1 µM): 203 nM
- IC50 (second compound 3.16 µM): 218 nM
- IC50 (second compound 10 µM): 275 nM
- viability, T/C [2]: 79.4%
- viability, T/C [3]: 86.3%
- viability, T/C [4]: 48.3%
- viability, T/C [5]: 25.2%
- viability, T/C [6]: 7.4%
- viability, T/C (second compound 0.1 µM, first compound 10 µM): 2.95%
- viability, T/C [8]: 70.6%
- viability, T/C [9]: 76.3%
- viability, T/C [10]: 46%
- viability, T/C [11]: 22.8%
- viability, T/C [12]: 4.01%
- viability, T/C (second compound 0.316 µM, first compound 10 µM): 2.65%
- viability, T/C [14]: 72.8%
- viability, T/C [15]: 55.5%
- viability, T/C [16]: 47.5%
- viability, T/C [17]: 18.1%
- viability, T/C [18]: 4.05%
- viability, T/C (second compound 1 µM, first compound 10 µM): 2.39%
- viability, T/C [20]: 76.4%
- viability, T/C [21]: 60.6%
- viability, T/C [22]: 45.8%
- viability, T/C [23]: 8.81%
- viability, T/C [24]: 4.98%
- viability, T/C (second compound 3.16 µM, first compound 10 µM): 2.71%
- viability, T/C [26]: 72.4%
- viability, T/C [27]: 71.6%
- viability, T/C [28]: 47%
- viability, T/C [29]: 3.56%
- viability, T/C [30]: 2.05%
- viability, T/C (second compound 10 µM, first compound 10 µM): 2.15%

SMILES: CC(=O)OC12COC1CC(O)C1(C)C(=O)C(O)C3=C(C)C(OC(=O)C(O)C(NC(=O)OC(C)(C)C)c4ccccc4)CC(O)(C(OC(=O)c4ccccc4)C21)C3(C)C (stereo not given) + CNCc1ccccc1-c1csc(C(C)Nc2nc(C)nc3cc(OC)c(OC)cc23)c1
- IC50 (second compound 0.1 µM): > 3160 nM
- IC50 (second compound 0.316 µM): > 3160 nM
- IC50 (second compound 1 µM): > 3160 nM
- IC50 (second compound 3.16 µM): < 10 nM
- IC50 (second compound 10 µM): < 10 nM
- viability, T/C [1]: 88.2%
- viability, T/C [2]: 99.3%
- viability, T/C [3]: 109%
- viability, T/C [4]: 98.9%
- viability, T/C [5]: 82%
- viability, T/C [6]: 87.8%
- viability, T/C [7]: 109%
- viability, T/C [8]: 110%
- viability, T/C [9]: 89.7%
- viability, T/C [10]: 96.4%
- viability, T/C [11]: 101%
- viability, T/C [12]: 113%
- viability, T/C [13]: 106%
- viability, T/C [14]: 105%
- viability, T/C [15]: 91.3%
- viability, T/C [16]: 111%
- viability, T/C [17]: 89.7%
- viability, T/C [18]: 77.4%
- viability, T/C [19]: 0.73%
- viability, T/C [20]: 102%
- viability, T/C [21]: 0.55%
- viability, T/C [22]: 0.5%
- viability, T/C [23]: 0.41%
- viability, T/C [24]: 105%
- viability, T/C [25]: 0.33%
- viability, T/C [26]: 0.34%
- viability, T/C [27]: 0.31%
- viability, T/C [28]: 0.36%
- viability, T/C [29]: 0.18%
- viability, T/C [30]: 0.93%

SMILES: CN(C)C/C=C/C(=O)Nc1cc2c(Nc3ccc(F)c(Cl)c3)ncnc2cc1O[C@H]1CCOC1 + CNCc1ccccc1-c1csc(C(C)Nc2nc(C)nc3cc(OC)c(OC)cc23)c1
- IC50 (second compound 0.1 µM): > 100 nM
- IC50 (second compound 0.316 µM): > 100 nM
- IC50 (second compound 1 µM): 0.489 nM
- IC50 (second compound 3.16 µM): 2.02 nM
- IC50 (second compound 10 µM): < 0.316 nM
- viability, T/C (second compound 0.1 µM, first compound 0.000316 µM): 88%
- viability, T/C (second compound 0.1 µM, first compound 0.001 µM): 80.3%
- viability, T/C (second compound 0.1 µM, first compound 0.00316 µM): 90.3%
- viability, T/C [1]: 97.7%
- viability, T/C [2]: 78%
- viability, T/C [3]: 88%
- viability, T/C (second compound 0.316 µM, first compound 0.000316 µM): 114%
- viability, T/C (second compound 0.316 µM, first compound 0.001 µM): 104%
- viability, T/C (second compound 0.316 µM, first compound 0.00316 µM): 106%
- viability, T/C [7]: 76.7%
- viability, T/C [8]: 78.4%
- viability, T/C [9]: 79.8%
- viability, T/C (second compound 1 µM, first compound 0.000316 µM): 69.9%
- viability, T/C (second compound 1 µM, first compound 0.001 µM): 12.7%
- viability, T/C (second compound 1 µM, first compound 0.00316 µM): 16.5%
- viability, T/C [13]: 21.8%
- viability, T/C [14]: 33.7%
- viability, T/C [15]: 1.43%
- viability, T/C (second compound 3.16 µM, first compound 0.000316 µM): 94.4%
- viability, T/C (second compound 3.16 µM, first compound 0.001 µM): 108%
- viability, T/C (second compound 3.16 µM, first compound 0.00316 µM): 0.36%
- viability, T/C [19]: 0.29%
- viability, T/C [20]: 68.5%
- viability, T/C [21]: 0.32%
- viability, T/C (second compound 10 µM, first compound 0.000316 µM): 0.23%
- viability, T/C (second compound 10 µM, first compound 0.001 µM): 0.22%
- viability, T/C (second compound 10 µM, first compound 0.00316 µM): 0.24%
- viability, T/C [25]: 0.45%
- viability, T/C [26]: 0.17%
- viability, T/C [27]: 0.22%
